From patent US8835375B2 (Applied Nanosystems B.V., priority 2006, dated 2014)
Entries after “also recorded” stand apart in the source; their conditions may differ. Non-standard residues stand in square brackets, D forms with d. No end group written: not given here. Abu = CC[C@H](N)C(=O)O

Legend:
[1] = tested on: angiotensin-I converting enzyme (ACE); experiment: angiotensin-I converting enzyme (ACE) of the vascular endothelium; details: cited from earlier work
[2] = cited from earlier work
[3] = tested on: Angiotensin Converting Enzyme (ACE); experiment: Angiotensin Converting Enzyme (ACE) from Porcine kidney, SIGMA, 8 nM in 100 mM Tris-HCl, 300 mm NaCl, 10 μM Zn, pH 8.3; details: 37° C.
[4] = tested on: Angiotensin Converting Enzyme (ACE); experiment: Angiotensin Converting Enzyme (ACE) from Porcine kidney, SIGMA, 4 nM in 100 mM Tris-HCl, 300 mm NaCl, 10 μM Zn, pH 8.3; details: 37° C., up to 26 hour
[5] = plasma from rat under continuous intravenous infusion (1 mL/hour); details: Sprague Dawley rat, up to 120 min
[6] = tested on: angiotensinases; experiment: in the body; angiotensinases located in red blood cells and the vascular beds of most tissues; details: cited from earlier work

DRVYIHPFHL
cleaved bond [1]: Phe8-His9
fragment found [2]: Ang(1-9); also recorded: Ang(1-7); also recorded: Ang III (Ang(2-8)); also recorded: Ang IV (Ang(3-8))

DRV[Abu]IHA
not cleaved [3]: no breakdown observed
not cleaved [4]: no degradation after 26 hour
not cleaved [5]: intact peptide detected in the sample taken at 120 min; very stable

Asp-Arg-Val-Tyr-Ile-His-Pro-Phe
fragment found [6]: angiotensin III (Arg-Val-Tyr-Ile-His-Pro-Phe; or Ang(2-8)
